Experimental data: US7629315B2, “Compositions for blocking the inhibitory effect of human CRP on human leptin” (University of Pittsburgh of the Commonwealth System of …, priority 2005, dated 2009)
“Also recorded” adds a separate entry of the source. Read-outs that look alike come from different tables or passages of the source.

Tests used:
[1] = biological target: T1, human leptin (Homo sapiens, UniProt P41159); assay: IC50 for human CRP against human leptin (125I-leptin binding to OBR-expressing HEK293 cells); settings: in the presence of about 2 ng/ml human leptin
Experimental: 4. Measurement of IC50 for human CRP against human leptin: Human leptin was iodinated with Na^125I using the lodogen method. Briefly, 15 μg of human leptin in 100 mM Phosphate buffer pH 7.5 were incubated with 1 mCi of carrier-free Na^125I (2200 Ci/mmol) in a glass tube containing 50 μg Iodogen. After 10 minute incubation at room temperature, the reaction was stopped with 100 μl 0.1% trifluoroacetic acid (TFA). The reaction mixture was immediately purified by reverse-phase HPLC. The separation employed a 5 minute isocratic step at 20% eluant B in A, followed by two consecutive 30 minute linear gradients from 20 to 50%, then from 50 to 60% eluant B in A (where eluant A is water containing 0.1% TFA and eluant B is acetonitrile containing 0.1% TFA) at a flow rate of 1.5 ml/min. The ^125I-labeled leptin (˜2 ng/ml) was pre-incubated with various concentrations of human CRP in 1 ml of μ-MEM for 30 minute before added to the OBR-expressing HEK293 cells. The incubation would last for 3 hours at 4° C. before the media was aspirated and the cells were dissolved in 0.1N NaOH for scintillation counting.
To examine if human CRP interferes with the binding of human leptin to its receptors, we used a HEK293 cell line stably transfected with the long-form human leptin receptor, OB-Rb. The characterization of this cell line has been reported in earlier studies. M. Friedman-Einat et al., 2003, Regul. Pept. […]

[2] = biological target: mouse leptin (Mus musculus, UniProt P41160); assay: IC50 for human CRP against mouse leptin (leptin binding to OB-Rb HEK293 cells); settings: in the presence of about 2 ng/ml mouse leptin
[3] = tested on: leptin-induced tyrosine phosphorylation of STAT3; assay: Leptin-induced STAT3 tyrosine phosphorylation in HEK293 cells expressing OB-Rb (western blot), human leptin; format: cell-based; settings: for effect on leptin-induced tyrosine phosphorylation of STAT3: human leptin 2 nM, protein pre-incubated with leptin, HEK293 OB-Rb cells
Experimental: (§1) 2. Signaling Studies: A HEK293 cell line stably expressing the human long-form receptor, OB-Rb (M. Friedman-Einat et al., 2003, Regul. Pept. 111, 77) was serum starved for 2-h before addition of leptin and CRP. Leptin (SEQ ID NO:4), in the presence or absence of C-reactive proteins, was pre-incubated in μ-MEM for 30 minutes at 37° C. before applied to the cells. After a 30-incubation with leptin (SEQ ID NO:4), the cells were harvested in a previously described protein lysis buffer. A. Z. Zhao et al., 1997, Proc. Natl. Acad. Sci. U.S.A. 94, 322. The protein extract was subjected to a western blot assay with an anti-phospho-STAT3 specific antibody (Cell Signaling, Beverly, Mass.). For studies involving the primary hypothalamic neurons, the rat hypothalamus was surgically isolated right after euthanasia, and immediately placed in the DMEM for incubation with leptin in the presence or absence of CRP.
(§2) To determine if the interaction between CRP and leptin influences cellular actions of leptin, we assessed the ability of leptin to stimulate tyrosine phosphorylation of STAT3 and PI3-kinase activity in the presence of CRP in vitro.

[4] = tested on: mouse leptin-induced STAT3 activation; assay: Leptin-induced STAT3 tyrosine phosphorylation in HEK293 cells expressing OB-Rb, mouse leptin; format: cell-based; settings: murine leptin 2 nM
Experimental: as §1, §2

[5] = tested on: leptin signaling in rat primary hypothalamic neurons; assay: Leptin signaling (phospho-STAT3 and PI3-kinase assays) in rat primary hypothalamic neurons; format: cell-based; settings: human leptin, rat primary hypothalamic ex-plants
Experimental: as §1
Previous studies have reported a requirement of both JAK-STAT and PI3-kinase pathways in mediating leptin signaling within the hypothalamus. C. Vaisse et al., 1996, Nat. Genet. 14, 95; A. Z. Zhao et al., 2002, Nat. Neurosci. 5, 727; K. D. Niswender et al., 2001, Nature 413, 794. The effects of human CRP on leptin signaling in rat primary hypothalamic ex-plants were also tested (FIG. 4D).

[6] = tested on: human IL6-stimulated tyrosine phosphorylation of STAT3; assay: IL6-stimulated STAT3 phosphorylation in human primary hepatocytes (specificity control); format: cell-based
[7] = tested on: insulin-stimulated PI3-kinase; assay: Insulin-stimulated PI3-kinase activity in differentiated 3T3-L1 adipocytes (specificity control); format: cell-based
[8] = tested on: ob/ob mice; assay: Infusion of human CRP and/or human leptin by osmotic pumps into ob/ob mice; format: in vivo, mouse; settings: for body weight / food-intake: human CRP alone, without co-infusion of leptin; for effect on leptin-regulated body weight / effect on leptin-regulated food-intake: 6 days
Experimental: 3(a). In vivo assessment of CRP functions: The micro-osmotic pumps (#1007D, DURECT, Cupertino, Calif.) were subcutaneously imbedded in the ob/ob or wild-type mice according to the instructions of the manufacturer. The osmotic pumps were pre-filled with saline, CRP, leptin or leptin plus CRP. Food-intake (24-h), body weight, and body temperature were monitored daily post-surgery. Blood glucose concentrations were measured from the tail-vein blood samples right before and at the end of infusion with a Precision Plus glucose meter (Medisense, Abbot Park, Ill.).
(§3) 3(b) Assessment of serum leptin insulin, and CRP: Human- and mouse-leptin concentrations were measured with the ELISA kit from CHEMICON (Temecular, Calif.) and R&D Systems (Minneapolis, Minn.), respectively, according to the instructions of the manufacturer. Serum mouse insulin concentrations were determined with an ELISA assay (LINCO Research, St. Charles, Mo.). Human CRP concentrations were also evaluated with an ELISA kit (Alpha Diagnostics International, San Antonio, Tex.).
3(c) Measurement of serum- and tissue-triglycerides: Serum- and tissue-triglycerides were determined with the protocols described in J. N. Huan et al., 2003, J. Biol. Chem. 278, 45638. […]

[9] = Serum levels of infused human CRP and human leptin in ob/ob mice (ELISA); format: in vivo, mouse
Experimental: as §3

[10] = biological target: T1, human leptin; assay: Immunoprecipitation of human CRP with human leptin; format: binding; settings: leptin/CRP mixture and human serum
Experimental: Direct binding of […] and leptin in an immunoprecipitation assay was determined. Rat CRP was purified from fresh rat serum to >95% employing a previously established affinity-purification protocol. J. Tseng et al., 1988, Mol. Immunol. 25, 679. This purity is very similar to the human CRP preparation obtained from a commercial source (CHEMICON International). The purified human- and rat-CRP proteins were pre-mixed with recombinant human and mouse leptin, respectively, before addition of specific antibodies against human- and mouse-leptin. The concentrations of CRP and leptin in the precipitation reaction were all within the physiological ranges (M. B. Schulze et al., 2004, Diabetes Care 27, 889; T. Kazumi et al., 2003, Metabolism 52, 1113).
In parallel experiments, recombinant leptin was also pre-mixed with human- or rat serum to allow for potential direct interactions prior to immunoprecipitation. The precipitation pellets obtained were subjected to western blot assays with specific anti-CRP antibodies. […] Because of the similarities between rat CRP and human CRP in the binding to leptin and of our main interest in the relevance to human obesity, focus was placed on potential functional effects of human CRP in the subsequent experiments.

[11] = human CRP high dosage 40 μg/day co-infused with human leptin
[12] = human CRP high dosage co-infused with leptin
[13] = human CRP low dosage 10 μg/day co-infused with human leptin

T1 sequence (P41159 22-167): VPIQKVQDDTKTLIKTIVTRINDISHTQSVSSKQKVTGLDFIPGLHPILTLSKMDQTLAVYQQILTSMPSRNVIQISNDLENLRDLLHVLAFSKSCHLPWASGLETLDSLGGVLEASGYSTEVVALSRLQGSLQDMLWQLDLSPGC
Chain of mouse leptin (P41160 22-167): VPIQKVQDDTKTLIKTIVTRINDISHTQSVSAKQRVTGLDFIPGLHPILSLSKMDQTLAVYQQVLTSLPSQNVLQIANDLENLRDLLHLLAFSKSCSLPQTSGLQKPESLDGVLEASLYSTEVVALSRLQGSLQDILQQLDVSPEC

human CRP: human C-reactive protein preparation obtained from a commercial source (CHEMICON International)
IC50 of CRP for reduction of 125I-labeled human leptin binding to its receptors [1]: approximately 80 ng/ml
IC50 of human CRP towards mouse leptin [2]: greater than 64 μg/ml
calcium dependence of attenuation of leptin signaling ([3]; excess EGTA added to the incubation medium): requires the presence of calcium ions
effect on leptin-induced tyrosine phosphorylation of STAT3 [3]: attenuate the tyrosine-phosphorylation of STAT3; also recorded: Attenuating effects; also recorded: caused the reduction of leptin-stimulated STAT3 activation
effect on leptin-induced tyrosine phosphorylation of STAT3 ([3]; listed as Human CRP): suppressed the activation of STAT3 by leptin
effect on mouse leptin-induced STAT3 phosphorylation [4]: less efficient in blocking the signaling capacity of mouse leptin; also recorded: unable to block leptin-induced STAT3 activation
effect on leptin signaling (phospho-STAT3 and PI3-kinase) [5]: inhibited leptin signaling in primary hypothalamic neurons
effect on IL6-stimulated tyrosine phosphorylation of STAT3 [6]: did not suppress IL-6 induced activation of STAT3
effect on IL6-stimulated tyrosine phosphorylation of STAT3 ([6]; listed as Human CRP): does not affect human IL6-stimulated tyrosine phosphorylation of STAT3
effect on insulin-stimulated PI3-kinase activity [7]: did not suppress; also recorded: does not affect insulin-stimulated PI3-kinase activity
leptin-stimulated STAT3 activation in hypothalamic tissues ([8]; high dose CRP co-infused with leptin): blocked by co-infusion of CRP with leptin
body weight [8]: did not affect food-intake or body weight
food-intake [8]: did not affect food-intake or body weight
body weight ([8]; listed as CRP): does not influence food-intake and body-weight
food-intake ([8]; listed as CRP): does not influence food-intake and body-weight
effect on leptin-regulated body weight [8, 11]: completely blocked the actions of leptin to restrain appetite and induce weight loss; also recorded: completely blocked the effects of leptin
effect on leptin-regulated food-intake [8, 11]: completely blocked the actions of leptin to restrain appetite and induce weight loss; also recorded: completely blocked the effects of leptin
effect on leptin-regulated rectal temperature ([8]; human CRP high dosage co-infused with human leptin): attenuation of leptin-induced energy expenditure; also recorded: completely blocked the effects of leptin on rectal temperature
effect on leptin-induced change in blood glucose [8, 12]: blocked these effects of leptin; also recorded: completely blocked leptin-induced beneficial effects
effect on leptin-induced change in hepatic triglycerides [8, 12]: blocked these effects of leptin; also recorded: completely blocked leptin-induced beneficial effects
effect on leptin-induced change in serum insulin [8, 12]: blocked these effects of leptin; also recorded: completely blocked leptin-induced beneficial effects
effect on leptin-induced change in serum triglycerides [8, 12]: blocked these effects of leptin; also recorded: completely blocked leptin-induced beneficial effects
effect on leptin-regulated body weight [8, 13]: only partially attenuated these effects of human leptin; also recorded: only partially blocked leptin's effect
effect on leptin-regulated food-intake [8, 13]: only partially attenuated these effects of human leptin; also recorded: only partially blocked leptin's effect
serum concentration of human CRP ([9]; end of infusion, human CRP 48 μg/day/mouse): 850 ± 100 ng/mL
serum concentrations of human CRP attained ([9]; human CRP infused at 10 or 40 μg/day): well within the physiological range observed in human plasma
direct binding to human leptin (immunoprecipitation with anti human-leptin, anti-CRP western blot) [10]: could pull down human CRP
